Test results reported in US10519111B2, “UV absorbing compounds, compositions comprising same and uses thereof” (CORAL SUNSCREEN PTY LTD, priority 2013, dated 2019).
“And” between values parts separate entries of the source, which are not always exact repeats. Identical values can stand only once.

Experiment: UV absorption properties (λmax, molar extinction coefficient ε, efficiency E 1%, 1 cm)
Type: physicochemical
Conditions: for ε (molar extinction coefficient): values in order of the λmax values; for shift / increase in λmax: versus base enaminoketone or alkanoyl counterparts

Compound	UV λmax	ε (molar extinction coefficient)	also measured
CC(=O)CC1=CC(C)(C)CCN1CC(C)C	–	–	E (1%, 1 cm) (Table 12): 675; ε (Table 12): 16000 M⁻¹ cm⁻¹; λmax (Table 12, 2-substituted compounds): 314 nm
CC(C)CN1C=C(C(=O)CCC=Cc2ccc(COc3ccc(C(=O)CC(=O)c4ccc(C(C)(C)C)cc4)cc3)cc2)C(C)(C)CC1 (racemic) [Compound 10, 1-(4-(tert-butyl)phenyl)-3-(4-((4-(5-(1-isobutyl-4,4-dimethyl-1,4,5,6-tetrahydropyridin-3-yl)-5-oxopent-1-en-1-yl)benzyl)oxy)phenyl)propane-1,3-dione]	314 nm and 357 nm	23250 M⁻¹ cm⁻¹ and 24050 M⁻¹ cm⁻¹	–
COc1ccc(C(=O)C(CCCCCC(=O)C2=CN(CC(C)C)CCC2(C)C)C(=O)c2ccc(C(C)(C)C)cc2)cc1 (centres unmarked) [Compound 5]	306 nm	–	–
C=CCCC(=O)C1=CN(CC(C)C)CCC1(C)C [Compound 8, 1-(1-Isobutyl-4,4-dimethyl-1,4,5,6-tetrahydropyridin-3-yl)pent-4-en-1-one]	308 nm	35000 M⁻¹ cm⁻¹	–
CC(C)(C)c1ccc(C(=O)CC(=O)c2ccc(OCc3ccc(Br)cc3)cc2)cc1 [Compound 9, 1-(4-((4-bromobenzyl)oxy)phenyl)-3-(4-(tert-butyl)phenyl)propane-1,3-dione]	357 nm	35500 M⁻¹ cm⁻¹	–
CC(C)CN1C=C(C(=O)c2ccc(C(C)(C)C)cc2)C(C)(C)CC1 [Compound 11, (4-(tert-butyl)phenyl)(1-isobutyl-4,4-dimethyl-1,4,5,6-tetrahydropyridin-3-yl)methanone]	317 nm	19000 M⁻¹ cm⁻¹	shift / increase in λmax: approximately 11 nm
COc1ccc(C(=O)C2=CN(CC(C)C)CCC2(C)C)cc1 [Compound 12, (1-isobutyl-4,4-dimethyl-1,4,5,6-tetrahydropyridin-3-yl) (4-methoxyphenyl)methanone]	319 nm	–	shift / increase in λmax: approximately 11 nm
COc1ccc(C(=O)CC(=O)C2=CN(CC(C)C)CCC2(C)C)cc1 [Compound 13, 1-(1-isobutyl-4,4-dimethyl-1,4,5,6-tetrahydropyridin-3-yl)-3-(4-methoxyphenyl)propane-1,3-dione]	293 nm and 396 nm	14250 M⁻¹ cm⁻¹ and 11150 M⁻¹ cm⁻¹	–
CC(C)CN1C=C(C(=O)c2ccc(N(C)C)cc2)C(C)(C)CC1 [Compound 15, (4-(dimethylamino)phenyl)(1-isobutyl-4,4-dimethyl-1,4,5,6-tetrahydropyridin-3-yl)methanone]	336 nm	17000 M⁻¹ cm⁻¹	–
CC(C)CN1C=C(C(=O)c2ccc(Br)cc2)C(C)(C)CC1 [Compound 16, (4-bromophenyl)(1-isobutyl-4,4-dimethyl-1,4,5,6-tetrahydropyridin-3-yl)methanone]	318 nm	22500 M⁻¹ cm⁻¹	–
CC(C)CN1C=C(C(=O)c2ccc3c(c2)CCO3)C(C)(C)CC1 [Compound 18, (2,3-dihydrobenzofuran-5-yl)(1-isobutyl-4,4-dimethyl-1,4,5,6-tetrahydropyridin-3-yl)methanone]	320 nm	22000 M⁻¹ cm⁻¹	–
CC(C)CN1C=C(C(=O)c2ccc(-c3ccccc3)cc2)C(C)(C)CC1 [Compound 19, [1,1′-biphenyl]-4-yl(1-isobutyl-4,4-dimethyl-1,4,5,6-tetrahydropyridin-3-yl)methanone]	320 nm	18000 M⁻¹ cm⁻¹	–
CC(C)CN1C=C(C(=O)c2ccccc2)C(C)(C)CC1 [Compound 20, (1-isobutyl-4,4-dimethyl-1,4,5,6-tetrahydropyridin-3-yl)(phenyl)methanone]	316 nm	19000 M⁻¹ cm⁻¹	–
CC(C)CN1C=C(C(=O)c2ccc(C(=O)C3=CN(CC(C)C)CCC3(C)C)cc2)C(C)(C)CC1 [Compound 21, 1,4-phenylenebis ((1-isobutyl-4,4-dimethyl-1,4,5,6-tetrahydropyridin-3-yl)methanone)]	320 nm	20000 M⁻¹ cm⁻¹	–
